Results reported in ChEMBL document CHEMBL3421625, “Discovery and optimization of novel antagonists to the human neurokinin-3 receptor for the treatment of sex-hormone disorders (Part I)” (J Med Chem, 2015).
Converted amounts (≈) assume the structure as drawn.

Assays:
[1] = Lipophilicity, log D of the compound at pH 7.4; assay type: physicochemical; settings: buffer, read-out: logD
[2] = Solubility of the compound in PBS buffer at pH 7.4 by shake-flask method; assay type: physicochemical
Cytochrome P450 3A4 = Cytochrome P450 3A4 (Homo sapiens, UniProt P08684); assay: Inhibition of CYP3A4 (unknown origin) by luciferase reporter assay in presence of NADPH regeneration system; assay type: ADME
Chain of Cytochrome P450 3A4 (P08684 whole entry): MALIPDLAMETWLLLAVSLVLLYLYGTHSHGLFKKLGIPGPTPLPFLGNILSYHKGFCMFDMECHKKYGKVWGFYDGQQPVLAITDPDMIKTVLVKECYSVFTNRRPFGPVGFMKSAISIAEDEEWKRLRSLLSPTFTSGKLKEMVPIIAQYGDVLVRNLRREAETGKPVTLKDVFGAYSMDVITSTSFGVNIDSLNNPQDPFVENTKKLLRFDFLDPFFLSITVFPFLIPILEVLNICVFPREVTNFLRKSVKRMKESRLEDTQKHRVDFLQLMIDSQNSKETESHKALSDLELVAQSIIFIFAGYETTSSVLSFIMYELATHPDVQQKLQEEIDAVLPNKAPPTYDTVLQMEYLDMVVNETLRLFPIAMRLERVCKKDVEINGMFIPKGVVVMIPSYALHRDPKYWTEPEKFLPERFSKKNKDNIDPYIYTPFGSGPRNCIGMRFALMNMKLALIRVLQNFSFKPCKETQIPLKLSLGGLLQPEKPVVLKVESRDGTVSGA

Cytochrome P450 2D6 = Cytochrome P450 2D6 (Homo sapiens, UniProt P10635); assay: Inhibition of CYP2D6 (unknown origin) by luciferase reporter assay in presence of NADPH regeneration system; assay type: ADME
Chain of Cytochrome P450 2D6 (P10635 whole entry): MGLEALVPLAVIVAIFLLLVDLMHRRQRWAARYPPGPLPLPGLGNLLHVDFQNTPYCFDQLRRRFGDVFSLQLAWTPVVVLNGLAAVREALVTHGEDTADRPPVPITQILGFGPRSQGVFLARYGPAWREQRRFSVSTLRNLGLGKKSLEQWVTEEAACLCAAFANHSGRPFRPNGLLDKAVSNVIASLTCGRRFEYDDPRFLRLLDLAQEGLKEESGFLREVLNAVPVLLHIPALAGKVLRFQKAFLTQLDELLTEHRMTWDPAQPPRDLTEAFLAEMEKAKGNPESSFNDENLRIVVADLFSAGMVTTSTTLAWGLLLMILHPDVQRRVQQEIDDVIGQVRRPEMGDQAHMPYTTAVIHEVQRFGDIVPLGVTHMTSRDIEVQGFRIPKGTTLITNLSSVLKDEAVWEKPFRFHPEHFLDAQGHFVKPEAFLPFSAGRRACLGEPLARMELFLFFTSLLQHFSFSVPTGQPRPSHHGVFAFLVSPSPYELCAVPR

Cytochrome P450 2C9 = Cytochrome P450 2C9 (Homo sapiens, UniProt P11712); assay: Inhibition of CYP2C9 (unknown origin) by luciferase reporter assay in presence of NADPH regeneration system; assay type: ADME
Chain of Cytochrome P450 2C9 (P11712 whole entry): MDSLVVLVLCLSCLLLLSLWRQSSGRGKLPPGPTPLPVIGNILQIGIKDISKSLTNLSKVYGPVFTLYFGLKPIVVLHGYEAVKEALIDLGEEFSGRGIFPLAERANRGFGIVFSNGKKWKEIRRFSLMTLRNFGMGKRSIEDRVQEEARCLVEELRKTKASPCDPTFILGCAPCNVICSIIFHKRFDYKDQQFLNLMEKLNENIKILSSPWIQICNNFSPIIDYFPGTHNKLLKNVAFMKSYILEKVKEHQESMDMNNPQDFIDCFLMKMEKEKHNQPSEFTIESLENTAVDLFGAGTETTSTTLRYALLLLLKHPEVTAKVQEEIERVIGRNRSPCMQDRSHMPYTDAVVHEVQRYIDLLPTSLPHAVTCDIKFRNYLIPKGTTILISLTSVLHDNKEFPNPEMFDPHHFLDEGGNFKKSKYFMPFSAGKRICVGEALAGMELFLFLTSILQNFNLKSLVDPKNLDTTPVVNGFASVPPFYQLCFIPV

Cytochrome P450 2C19 = Cytochrome P450 2C19 (Homo sapiens, UniProt P33261); assay: Inhibition of CYP2C19 (unknown origin) by luciferase reporter assay in presence of NADPH regeneration system
Chain of Cytochrome P450 2C19 (P33261 whole entry): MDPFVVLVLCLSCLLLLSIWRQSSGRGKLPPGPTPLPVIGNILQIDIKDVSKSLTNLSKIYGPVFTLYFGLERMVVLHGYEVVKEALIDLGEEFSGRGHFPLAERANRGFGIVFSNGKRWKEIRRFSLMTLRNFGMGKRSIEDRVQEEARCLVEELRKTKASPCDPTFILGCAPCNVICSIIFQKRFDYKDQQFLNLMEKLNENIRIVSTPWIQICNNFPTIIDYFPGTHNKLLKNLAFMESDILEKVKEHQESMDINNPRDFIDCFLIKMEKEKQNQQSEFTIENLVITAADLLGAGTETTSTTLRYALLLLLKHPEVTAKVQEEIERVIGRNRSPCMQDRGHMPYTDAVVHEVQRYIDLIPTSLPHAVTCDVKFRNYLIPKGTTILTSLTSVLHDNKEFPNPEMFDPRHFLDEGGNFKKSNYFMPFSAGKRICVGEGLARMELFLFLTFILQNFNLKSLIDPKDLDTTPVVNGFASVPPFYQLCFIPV

Cytochrome P450 1A2 = biological target: T1, Cytochrome P450 1A2 (Homo sapiens, UniProt P05177); assay: Inhibition of CYP1A2 (unknown origin) by luciferase reporter assay in presence of NADPH regeneration system; assay type: ADME
T1 sequence (P05177 whole entry): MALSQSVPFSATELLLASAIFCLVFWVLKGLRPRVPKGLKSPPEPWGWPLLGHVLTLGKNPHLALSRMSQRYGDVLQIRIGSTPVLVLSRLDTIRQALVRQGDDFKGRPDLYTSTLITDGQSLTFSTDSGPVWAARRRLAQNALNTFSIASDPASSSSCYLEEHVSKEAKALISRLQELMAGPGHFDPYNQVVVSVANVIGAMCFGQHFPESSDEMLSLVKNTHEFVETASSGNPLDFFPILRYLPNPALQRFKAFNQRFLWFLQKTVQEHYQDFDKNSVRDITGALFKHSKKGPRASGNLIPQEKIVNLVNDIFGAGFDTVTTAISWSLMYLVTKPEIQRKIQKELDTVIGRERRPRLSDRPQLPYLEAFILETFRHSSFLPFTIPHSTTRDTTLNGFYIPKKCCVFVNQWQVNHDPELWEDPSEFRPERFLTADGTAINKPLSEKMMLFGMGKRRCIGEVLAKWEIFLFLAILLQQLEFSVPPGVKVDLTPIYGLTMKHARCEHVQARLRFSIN

Substance-K receptor [3] = biological target: T2, Substance-K receptor (Homo sapiens, UniProt P21452); assay: Displacement of [125I]-neurokinin A from human NK2R after 90 mins by scintillation counting analysis
T2 sequence (P21452 whole entry): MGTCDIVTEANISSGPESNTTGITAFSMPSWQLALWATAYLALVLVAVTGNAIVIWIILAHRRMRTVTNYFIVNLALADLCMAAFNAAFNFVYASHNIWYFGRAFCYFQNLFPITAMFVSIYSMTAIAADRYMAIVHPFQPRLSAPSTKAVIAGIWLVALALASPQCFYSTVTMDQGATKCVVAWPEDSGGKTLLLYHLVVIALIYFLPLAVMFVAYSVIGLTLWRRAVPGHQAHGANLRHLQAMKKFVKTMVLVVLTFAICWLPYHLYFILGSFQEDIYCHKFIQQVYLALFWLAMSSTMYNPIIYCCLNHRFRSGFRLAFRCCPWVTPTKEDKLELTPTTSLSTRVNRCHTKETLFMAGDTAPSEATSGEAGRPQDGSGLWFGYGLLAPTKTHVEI

[4] = biological target: Kappa-type opioid receptor (Homo sapiens) (UniProt P41145); assay: Inhibition of KOR (unknown origin) at 10 uM relative to control
Chain of Kappa-type opioid receptor (Homo sapiens) (P41145 whole entry): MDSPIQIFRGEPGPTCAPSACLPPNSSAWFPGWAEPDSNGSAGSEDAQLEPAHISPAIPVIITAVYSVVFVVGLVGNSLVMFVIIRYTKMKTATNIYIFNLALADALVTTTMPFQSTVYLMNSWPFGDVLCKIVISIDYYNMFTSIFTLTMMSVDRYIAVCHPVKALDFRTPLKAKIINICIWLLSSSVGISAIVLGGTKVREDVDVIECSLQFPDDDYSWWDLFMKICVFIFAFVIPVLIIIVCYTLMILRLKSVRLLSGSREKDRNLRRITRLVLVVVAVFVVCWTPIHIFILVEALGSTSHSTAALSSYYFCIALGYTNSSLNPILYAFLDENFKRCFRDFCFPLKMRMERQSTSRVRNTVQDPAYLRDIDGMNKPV

[5] = Fraction unbound in rat plasma at 5 uM after 4 hrs by equilibrium dialysis method; assay type: ADME, cell-free
[6] = Apparent permeability across apical to basolateral side in human Caco2 cells in presence of 0.1% bovine serum albumin; settings: Caco-2
[7] = Apparent permeability across basolateral to apical side in human Caco2 cells in presence of 0.1% bovine serum albumin; settings: Caco-2
[8] = Total systemic clearance in Sprague-Dawley rat at 1 mg/kg, iv by LC-MS/MS analysis; assay type: ADME, organism-based; design: dose 1 mg/kg, route intravenous; settings: in vivo
Rattus norvegicus [9] = assay: Unbound AUC in Sprague-Dawley rat at 1 mg/kg, iv by LC-MS/MS analysis; assay type: ADME, organism-based; design: dose 1 mg/kg, route intravenous; settings: in vivo
Rattus norvegicus [10] = assay: Unbound AUC in Sprague-Dawley rat at 3 mg/kg, po by LC-MS/MS analysis; assay type: ADME, organism-based; design: dose 3 mg/kg, route oral; settings: in vivo
Rattus norvegicus [11] = assay: Unbound Cmax in Sprague-Dawley rat at 3 mg/kg, po by LC-MS/MS analysis; assay type: ADME, organism-based; design: dose 3 mg/kg, route oral; settings: in vivo
[12] = Fraction unbound in rat brain at 5 uM after 4 hrs by equilibrium dialysis method; assay type: ADME, tissue-based
[13] = Ratio of unbound drug level in brain to plasma in Sprague-Dawley rat at 1 mg/kg, iv measured at 10 mins; settings: brain and plasma
[14] = Ratio of unbound drug level in brain to plasma in Sprague-Dawley rat at 1 mg/kg, iv measured at 60 mins; settings: brain and plasma
Neuromedin-K receptor [15] = biological target: T3, Neuromedin-K receptor (Homo sapiens, UniProt P29371)
T3 sequence (P29371 whole entry): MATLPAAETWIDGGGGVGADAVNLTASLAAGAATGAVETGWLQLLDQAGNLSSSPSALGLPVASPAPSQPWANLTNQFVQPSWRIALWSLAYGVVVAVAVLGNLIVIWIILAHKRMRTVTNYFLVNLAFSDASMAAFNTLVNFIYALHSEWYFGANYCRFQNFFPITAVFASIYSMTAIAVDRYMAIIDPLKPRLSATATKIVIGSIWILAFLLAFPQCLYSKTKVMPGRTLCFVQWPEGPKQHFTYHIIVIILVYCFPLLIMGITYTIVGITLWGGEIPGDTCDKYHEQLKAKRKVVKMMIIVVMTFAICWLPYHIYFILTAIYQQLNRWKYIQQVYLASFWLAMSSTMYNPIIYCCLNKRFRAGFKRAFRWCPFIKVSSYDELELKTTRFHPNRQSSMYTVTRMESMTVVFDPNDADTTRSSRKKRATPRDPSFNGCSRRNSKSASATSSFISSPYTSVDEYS

NK-3 receptor = biological target: T4, NK-3 receptor (Macaca mulatta, UniProt Q2WGM0)
T4 sequence (Q2WGM0 whole entry): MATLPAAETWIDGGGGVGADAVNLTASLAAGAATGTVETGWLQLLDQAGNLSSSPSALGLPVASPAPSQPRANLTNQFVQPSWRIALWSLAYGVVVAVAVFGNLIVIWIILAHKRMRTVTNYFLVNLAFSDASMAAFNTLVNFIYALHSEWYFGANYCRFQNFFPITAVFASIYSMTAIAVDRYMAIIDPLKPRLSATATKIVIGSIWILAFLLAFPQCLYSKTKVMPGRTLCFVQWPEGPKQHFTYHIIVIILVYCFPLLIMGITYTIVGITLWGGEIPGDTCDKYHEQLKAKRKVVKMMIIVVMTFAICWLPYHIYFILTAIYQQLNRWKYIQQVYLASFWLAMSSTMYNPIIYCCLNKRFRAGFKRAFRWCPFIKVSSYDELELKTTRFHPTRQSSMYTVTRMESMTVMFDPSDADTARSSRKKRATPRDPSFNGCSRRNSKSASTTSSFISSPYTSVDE
Description: Displacement of [3H]-SB222200 from monkey NK3R after 90 mins by scintillation counting analysis

Neuromedin-K receptor [16] = biological target: T5, Neuromedin-K receptor (Rattus norvegicus, UniProt P16177)
T5 sequence (P16177 whole entry): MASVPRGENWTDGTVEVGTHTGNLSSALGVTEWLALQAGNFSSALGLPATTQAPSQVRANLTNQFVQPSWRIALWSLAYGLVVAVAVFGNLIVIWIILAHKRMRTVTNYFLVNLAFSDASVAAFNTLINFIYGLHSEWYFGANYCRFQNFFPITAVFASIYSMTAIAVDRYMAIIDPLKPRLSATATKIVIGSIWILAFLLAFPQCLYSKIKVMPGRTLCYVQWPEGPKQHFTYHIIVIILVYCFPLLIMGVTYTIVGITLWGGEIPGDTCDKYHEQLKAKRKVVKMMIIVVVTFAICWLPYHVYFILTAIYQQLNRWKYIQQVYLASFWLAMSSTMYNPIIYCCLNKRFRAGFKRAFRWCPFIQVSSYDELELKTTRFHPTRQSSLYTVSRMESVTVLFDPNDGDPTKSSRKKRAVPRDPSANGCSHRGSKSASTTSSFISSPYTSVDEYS
Description: Displacement of [3H]-SB222200 from rat NK3R after 90 mins by scintillation counting analysis

Substance-P receptor = Substance-P receptor (Homo sapiens, UniProt P25103)
Chain of Substance-P receptor (P25103 whole entry): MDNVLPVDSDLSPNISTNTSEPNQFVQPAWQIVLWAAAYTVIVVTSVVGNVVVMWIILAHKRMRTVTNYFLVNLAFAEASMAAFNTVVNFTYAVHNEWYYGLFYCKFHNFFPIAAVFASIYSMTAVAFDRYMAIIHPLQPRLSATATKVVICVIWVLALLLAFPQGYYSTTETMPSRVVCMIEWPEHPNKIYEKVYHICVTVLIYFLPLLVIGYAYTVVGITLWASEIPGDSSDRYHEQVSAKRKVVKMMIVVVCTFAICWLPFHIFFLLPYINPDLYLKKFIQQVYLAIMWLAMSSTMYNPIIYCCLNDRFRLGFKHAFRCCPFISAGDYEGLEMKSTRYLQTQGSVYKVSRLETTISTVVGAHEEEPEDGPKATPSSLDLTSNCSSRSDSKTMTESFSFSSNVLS
Description: Displacement of [3H]-Substance P from human NK1R after 90 mins by scintillation counting analysis

in vivo [17] = settings: Sprague-Dawley, rat, iv, 1 mg/kg
Description: Volume of distribution at steady state in Sprague-Dawley rat at 1 mg/kg, iv by LC-MS/MS analysis

in vivo [18] = settings: Sprague-Dawley, rat, iv, 1 mg/kg; remark: listed apart in the source
in vivo [19] = settings: Sprague-Dawley, rat, po, 3 mg/kg
in vivo [20] = settings: Sprague-Dawley, rat, po, 3 mg/kg; remark: listed apart in the source
Neuromedin-K receptor [21] = biological target: T3, Neuromedin-K receptor; assay: biochemical
Description: Displacement of [3H]-SB222200 from recombinant human NK3R expressed in CHO cell membranes after 90 mins by scintillation counting analysis

[22] = biological target: Voltage-gated inwardly rectifying potassium channel KCNH2 (Homo sapiens, UniProt Q12809)
Chain of Voltage-gated inwardly rectifying potassium channel KCNH2 (Q12809 whole entry): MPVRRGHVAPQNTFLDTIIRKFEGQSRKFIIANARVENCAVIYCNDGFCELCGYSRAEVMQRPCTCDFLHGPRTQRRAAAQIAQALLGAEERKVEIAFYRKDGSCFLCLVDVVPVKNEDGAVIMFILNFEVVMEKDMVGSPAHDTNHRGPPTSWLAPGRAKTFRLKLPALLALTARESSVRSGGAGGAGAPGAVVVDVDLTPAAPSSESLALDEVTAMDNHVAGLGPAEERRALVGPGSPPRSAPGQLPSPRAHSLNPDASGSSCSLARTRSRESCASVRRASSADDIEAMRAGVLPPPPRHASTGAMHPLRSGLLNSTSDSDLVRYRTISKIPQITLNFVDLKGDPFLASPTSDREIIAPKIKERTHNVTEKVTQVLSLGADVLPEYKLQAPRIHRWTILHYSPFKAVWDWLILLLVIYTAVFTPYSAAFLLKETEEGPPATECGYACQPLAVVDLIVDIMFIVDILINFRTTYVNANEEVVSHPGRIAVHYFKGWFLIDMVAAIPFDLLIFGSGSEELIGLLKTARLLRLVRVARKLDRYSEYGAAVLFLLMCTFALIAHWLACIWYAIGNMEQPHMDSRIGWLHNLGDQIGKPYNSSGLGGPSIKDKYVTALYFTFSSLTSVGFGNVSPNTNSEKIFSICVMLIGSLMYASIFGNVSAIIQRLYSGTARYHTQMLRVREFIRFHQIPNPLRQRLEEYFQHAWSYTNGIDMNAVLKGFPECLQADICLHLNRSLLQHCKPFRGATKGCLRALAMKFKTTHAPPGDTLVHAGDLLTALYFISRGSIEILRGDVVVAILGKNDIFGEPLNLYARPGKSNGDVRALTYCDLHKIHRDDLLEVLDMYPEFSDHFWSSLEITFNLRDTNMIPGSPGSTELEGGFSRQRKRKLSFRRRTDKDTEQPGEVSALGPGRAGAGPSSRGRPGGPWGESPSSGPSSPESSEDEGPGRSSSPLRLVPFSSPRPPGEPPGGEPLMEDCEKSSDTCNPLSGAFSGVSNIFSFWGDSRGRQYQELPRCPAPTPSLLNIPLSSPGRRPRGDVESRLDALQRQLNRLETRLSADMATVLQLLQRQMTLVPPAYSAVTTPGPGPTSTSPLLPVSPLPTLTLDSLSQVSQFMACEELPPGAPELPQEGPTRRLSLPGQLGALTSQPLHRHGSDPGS
Description: Inhibition of human ERG expressed in HEK293 cells after 5 mins by patch-clamp assay

Substance-K receptor [23] = biological target: T2, Substance-K receptor; assay: Displacement of [125I]NKA from human NK2R expressed in CHO cell membranes after 90 mins by scintillation counting analysis
[24] = biological target: T6, Gonadotropin-releasing hormone receptor (Homo sapiens) (UniProt P30968); assay: Inhibition of GnRH-R (unknown origin) at 10 uM relative to control
T6 sequence (whole entry): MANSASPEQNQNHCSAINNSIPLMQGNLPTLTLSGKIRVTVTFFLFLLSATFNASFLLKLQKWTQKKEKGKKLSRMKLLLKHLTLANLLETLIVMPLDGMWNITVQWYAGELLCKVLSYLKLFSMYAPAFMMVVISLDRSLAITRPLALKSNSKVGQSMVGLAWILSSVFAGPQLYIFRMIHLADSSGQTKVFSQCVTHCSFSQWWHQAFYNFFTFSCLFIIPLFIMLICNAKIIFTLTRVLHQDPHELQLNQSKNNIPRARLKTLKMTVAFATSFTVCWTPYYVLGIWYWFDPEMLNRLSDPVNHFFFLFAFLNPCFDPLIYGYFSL

[25] = biological target: Neuropeptide FF receptor 1 (Homo sapiens) (UniProt Q9GZQ6); assay: Inhibition of NPFF1 (unknown origin) at 10 uM relative to control
Chain of Neuropeptide FF receptor 1 (Homo sapiens) (Q9GZQ6 whole entry): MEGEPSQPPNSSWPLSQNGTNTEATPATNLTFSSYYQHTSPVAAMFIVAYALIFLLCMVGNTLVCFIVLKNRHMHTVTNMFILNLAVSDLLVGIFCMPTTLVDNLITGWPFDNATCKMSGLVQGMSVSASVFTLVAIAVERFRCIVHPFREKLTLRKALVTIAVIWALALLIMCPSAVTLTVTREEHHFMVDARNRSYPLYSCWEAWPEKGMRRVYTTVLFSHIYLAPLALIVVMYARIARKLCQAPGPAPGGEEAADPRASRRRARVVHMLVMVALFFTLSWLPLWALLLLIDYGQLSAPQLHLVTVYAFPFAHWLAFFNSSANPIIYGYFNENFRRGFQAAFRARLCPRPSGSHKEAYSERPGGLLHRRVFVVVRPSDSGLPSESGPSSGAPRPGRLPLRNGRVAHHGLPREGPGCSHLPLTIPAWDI

Row | SMILES | logD [1] | solubility thermodynamic [2] | IC50 (Cytochrome P450 3A4) | IC50 (Cytochrome P450 2D6) | IC50 (Cytochrome P450 2C9) | IC50 (Cytochrome P450 2C19) | IC50 (Cytochrome P450 1A2) | Ki (Substance-K receptor [3]) | inhibition [4] | IC50 (Neuromedin-K receptor [15]) | Ki (NK-3 receptor) | Ki (Substance-P receptor) | Ki (Neuromedin-K receptor [21]) | further results
1 | CC(C)c1nc(-c2nnc3n2CCN(C(=O)c2ccc(-c4cccs4)cc2)[C@@H]3C)co1 | 3.3 | 119 µM (≈ 51.6 µg/mL) | 43 µM | 65 µM | 14 µM | 22 µM | 81 µM | 10 µM | 41% | 0.00398 µM | 0.00631 µM | 7.94 µM | 0.00316 µM | fraction unbound at 4 h, 5 µM [5]: 0.036; Papp A→B [6]: 46.4 ×10⁻⁶ cm/s; Papp B→A [7]: 43.8 ×10⁻⁶ cm/s; clearance [8]: 8.2 mL/min/kg; fAUC (Rattus norvegicus [9]): 9.3 µM·min; fAUC (Rattus norvegicus [10]): 13.6 µM·min; fCmax (Rattus norvegicus [11]): 58.7 nM; fraction unbound at 4 h, 5 µM [12]: 0.016; Kp uu at 10 min [13]: 0.2; Kp uu at 1 h [14]: 0.2; Ki (Neuromedin-K receptor [16]): 0.032 µM; Vd (in vivo [17]): 2.6 L/kg; half-life (in vivo [18]): 3.5 h; Tmax (in vivo [19]): 1.13 h; bioavailability (in vivo [20]): 49%
2 | Cc1nc(-c2nnc3n2CCN(C(=O)c2ccc(-c4cccs4)cc2)C3)cs1 | 2.9 | 172 µM (≈ 70.1 µg/mL) | 30 µM | > 100 µM | 19 µM | 15 µM | 19 µM | – | – | 0.0794 µM | – | – | 0.0794 µM | IC50 [22]: 27 µM
3 | CSCC[C@H](NC(=O)[C@H](CC(C)C)NC(=O)CNC(=O)[C@H](Cc1ccccc1)N(C)C(=O)[C@H](Cc1ccccc1)NC(=O)[C@H](CC(=O)O)NC(=O)CCC(=O)O)C(N)=O [SENKTIDE] | – | – | – | – | – | – | – | – | – | – | – | – | – | Ki (Substance-K receptor [23]): > 10 µM
4 | Cc1nsc(-c2nnc3n2CCN(C(=O)c2ccc(-c4cccs4)cc2)[C@@H]3C)n1 | – | – | – | – | – | – | – | 12.6 µM | 42% | – | 0.00631 µM | 12.6 µM | – | inhibition [24]: 35%; inhibition [25]: 24%
